# In US20230201550A1, “SYSTEMS AND METHODS FOR TREATING PERSISTENT PAIN OF NEUROGENIC ORIGIN AND COMPLEX INJURY” (Nova Neura, LLC, priority 2020, published 2023):
# Tested on: not listed separately
# Assay: Stability and crystallization of the topical composition
# Format: physicochemical
# Details: not given
# Text: Through experimentation it was discovered that a combination of sugars (e.g. mannitol with dextrose) with or without the addition of corn syrup (also known as glucose-fructose) would impede or completely eliminate the crystallization process, allowing for a higher concentration of these ingredients in solution.
row,Compound,"stability in solution / of the formula, shelf-life"
1,OCC(O)CO [Glycerin],highly effective stabilizing measure

# Same assay, conditions: winter temperatures or refrigerator; combination of sugars
row,Compound,crystallization of Mannitol in cold environments
1,"OC[C@@H](O)[C@@H](O)[C@H](O)[C@H](O)CO [Mannitol, reference compound]",significantly mitigated or eliminated

# Tested on: rabbit ear
# Assay: not given
# Details: rating out of 5 (x/5); cited from earlier work
row,Compound,comedogenicity
1,"O=C1CC[C@@H](C(=O)[O-])N1.[Na+] [Sodium PCA, sodium L-pyroglutamate]",0/5
2,"CC12CCC(CC1=O)C2(C)C (centres unmarked) [camphor, reference compound]",2/5
3,CCCCCCCCCCCCCCCCCCO [cetearyl alcohol],4/5
4,CCCCCCCCCCCCCCCCCC(=O)OCC(O)CO (centres unmarked) [glyceryl stearate],3/5
5,CCCCCCCCCCCCCC(=O)OC(C)C [isopropyl myristate],5/5
6,CCCCCCCCCCCCCCCC(=O)OCCCCCCCC [octyl palmitate],4/5
7,CC(C)=CCC/C(C)=C/CC/C(C)=C/CC/C=C(\C)CC/C=C(\C)CCC=C(C)C [squalene],1/5
8,caprylic/capric triglyceride,0/5
9,cyclomethicone,0/5
